Measured values reported in paper PMC9090415, “Discovery of small molecule inhibitors of Plasmodium falciparum apicoplast DNA polymerase” (Journal of Enzyme Inhibition and Medicinal Chemistry, 2022).

Target: P. falciparum apicoplast DNA polymerase (Pf-apPOL) (Plasmodium falciparum, UniProt Q8ILY1)
Experiment: Fluorescence-based high-throughput DNA polymerase assay (molecular beacon), primary screen and dose-response;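 as to % inhibition ApPOL 90': test concentration in µM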;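 as to % inhibition Apol 40': compound concentration given in µM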;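 as to % inhibition apPOL 180': test concentration in µM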
Type: biochemical
Conditions: for DNA Pol: 90 min, 10 µM
Summary of the method: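 Single-point screening used 10 µM compound with 20 nM polymerase, 20 nM hairpin substrate and 6 µM dNTPs for 90 min at 25 °C. Confirmatory titrations (2.5–80 µM) followed fluorescence at three times, and IC50 was derived from a fit including a cooperativity term n.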

Sequence of P. falciparum apicoplast DNA polymerase (Pf-apPOL) (Q8ILY1 entry or part of it): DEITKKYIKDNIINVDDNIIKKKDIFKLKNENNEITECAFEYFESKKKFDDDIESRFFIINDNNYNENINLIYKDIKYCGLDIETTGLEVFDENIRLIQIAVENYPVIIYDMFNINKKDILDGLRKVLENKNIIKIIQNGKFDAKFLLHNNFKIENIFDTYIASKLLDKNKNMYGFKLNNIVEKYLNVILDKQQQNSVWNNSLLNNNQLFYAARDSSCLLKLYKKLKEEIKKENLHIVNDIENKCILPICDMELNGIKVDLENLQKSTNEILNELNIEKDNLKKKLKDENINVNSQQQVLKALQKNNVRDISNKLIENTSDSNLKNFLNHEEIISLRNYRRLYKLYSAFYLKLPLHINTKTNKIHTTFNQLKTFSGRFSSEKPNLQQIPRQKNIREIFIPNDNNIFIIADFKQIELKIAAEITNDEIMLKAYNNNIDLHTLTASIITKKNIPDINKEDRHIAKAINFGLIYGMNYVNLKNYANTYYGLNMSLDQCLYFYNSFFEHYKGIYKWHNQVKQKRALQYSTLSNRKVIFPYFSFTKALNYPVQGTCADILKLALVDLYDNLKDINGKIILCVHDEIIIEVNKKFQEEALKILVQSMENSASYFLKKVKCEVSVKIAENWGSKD

SMILES: CCCCC(=O)N1CCc2c(nc3cc(-c4ccccc4Cl)[nH]n3c2=O)C1 [Molecule 37, CCCCC(=O)N1CCc2c(C1)nc1n(c2=O)[nH]c(c1)c1ccccc1Cl]
- DNA Pol ("DNA Pol" of the 186 hits list (screen value)): 43
- % inhibition Apo pol 10' (DRC-1, concentration 2.5): 9.306%
- % inhibition Apo pol 10' (DRC-1, concentration 5): 24.2361%
- % inhibition Apo pol 10' (DRC-1, concentration 10): 50.6318%
- % inhibition Apo pol 10' (DRC-1, concentration 20): 65.8539%
- % inhibition Apo pol 10' (DRC-1, concentration 40): 79.9976%
- % inhibition Apo pol 10' (DRC-1, concentration 80): 82.2007%
- % inhibition Apol 90' (DRC-1, concentration 2.5): 2.3506%
- % inhibition Apol 90' (DRC-1, concentration 5): 13.0098%
- % inhibition Apol 90' (DRC-1, concentration 10): 36.7881%
- % inhibition Apol 90' (DRC-1, concentration 20): 53.1884%
- % inhibition Apol 90' (DRC-1, concentration 40): 71.0429%
- % inhibition Apol 90' (DRC-1, concentration 80): 81.0911%
- % inhibition apPOL 180' (DRC-1, concentration 2.5): -3.183%
- % inhibition apPOL 180' (DRC-1, concentration 5): 4.447%
- % inhibition apPOL 180' (DRC-1, concentration 10): 22.1273%
- % inhibition apPOL 180' (DRC-1, concentration 20): 36.1098%
- % inhibition apPOL 180' (DRC-1, concentration 40): 57.5163%
- % inhibition apPOL 180' (DRC-1, concentration 80): 72.7607%
- % inhibition Apo pol 5' (DRC-2, concentration 2.5): 11%
- % inhibition Apo pol 5' (DRC-2, concentration 5): 13%
- % inhibition Apo pol 5' (DRC-2, concentration 10): 29%
- % inhibition Apo pol 5' (DRC-2, concentration 20): 33%
- % inhibition Apo pol 5' (DRC-2, concentration 40): 46%
- % inhibition Apo pol 5' (DRC-2, concentration 80): 35%
- % inhibition Apol 40' (DRC-2, concentration 2.5): 13%
- % inhibition Apol 40' (DRC-2, concentration 5): 15%
- % inhibition Apol 40' (DRC-2, concentration 10): 33%
- % inhibition Apol 40' (DRC-2, concentration 20): 38%
- % inhibition Apol 40' (DRC-2, concentration 40): 62%
- % inhibition Apol 40' (DRC-2, concentration 80): 62%
- % inhibition ApPOL 90' (DRC-2, concentration 2.5): 12%
- % inhibition ApPOL 90' (DRC-2, concentration 5): 13%
- % inhibition ApPOL 90' (DRC-2, concentration 10): 30%
- % inhibition ApPOL 90' (DRC-2, concentration 20): 35%
- % inhibition ApPOL 90' (DRC-2, concentration 40): 63%
- % inhibition ApPOL 90' (DRC-2, concentration 80): 68%
- % inhibition apPOL 180' (DRC-2, concentration 2.5): 7%
- % inhibition apPOL 180' (DRC-2, concentration 5): 8.42%
- % inhibition apPOL 180' (DRC-2, concentration 10): 23%
- % inhibition apPOL 180' (DRC-2, concentration 20): 23%
- % inhibition apPOL 180' (DRC-2, concentration 40): 55%
- % inhibition apPOL 180' (DRC-2, concentration 80): 68%
- DNA Pol (primary screen value, DNA Pol): 43

SMILES: Cl.NC(CO)C(=O)NNCc1ccc(O)c(O)c1O (stereo not shown) [KU0260493]
- DNA Pol ('DNA Pol' of the 186 hits list (primary screen value)): 84
- DNA Pol (DNA Pol (primary screen value)): 84
- % inhibition Apo pol 10' (DRC-1, concentration 2.5): 2.4672%
- % inhibition Apo pol 10' (DRC-1, concentration 5): 2.015%
- % inhibition Apo pol 10' (DRC-1, concentration 10): 15.4444%
- % inhibition Apo pol 10' (DRC-1, concentration 20): 26.1922%
- % inhibition Apo pol 10' (DRC-1, concentration 40): 36.4325%
- % inhibition Apo pol 10' (DRC-1, concentration 80): 40.9646%
- % inhibition Apol 90' (DRC-1, concentration 2.5): -5.483%
- % inhibition Apol 90' (DRC-1, concentration 5): -0.705%
- % inhibition Apol 90' (DRC-1, concentration 10): 31.8192%
- % inhibition Apol 90' (DRC-1, concentration 20): 46.4998%
- % inhibition Apol 90' (DRC-1, concentration 40): 57.8018%
- % inhibition Apol 90' (DRC-1, concentration 80): 63.3107%
- % inhibition apPOL 180' (DRC-1, concentration 2.5): -3.278%
- % inhibition apPOL 180' (DRC-1, concentration 5): 12.5243%
- % inhibition apPOL 180' (DRC-1, concentration 10): 43.7705%
- % inhibition apPOL 180' (DRC-1, concentration 20): 57.9843%
- % inhibition apPOL 180' (DRC-1, concentration 40): 66.1218%
- % inhibition apPOL 180' (DRC-1, concentration 80): 68.6937%
- % inhibition Apo pol 5' (DRC-2, concentration 2.5): -5.63%
- % inhibition Apo pol 5' (DRC-2, concentration 5): 3.49%
- % inhibition Apo pol 5' (DRC-2, concentration 10): 23%
- % inhibition Apo pol 5' (DRC-2, concentration 20): 36%
- % inhibition Apo pol 5' (DRC-2, concentration 40): 47%
- % inhibition Apo pol 5' (DRC-2, concentration 80): 54%
- % inhibition Apol 40' (DRC-2, concentration 2.5): -1.63%
- % inhibition Apol 40' (DRC-2, concentration 5): 15%
- % inhibition Apol 40' (DRC-2, concentration 10): 38%
- % inhibition Apol 40' (DRC-2, concentration 20): 53%
- % inhibition Apol 40' (DRC-2, concentration 40): 62%
- % inhibition Apol 40' (DRC-2, concentration 80): 65%
- % inhibition ApPOL 90' (DRC-2, concentration 2.5): 1.48%
- % inhibition ApPOL 90' (DRC-2, concentration 5): 22%
- % inhibition ApPOL 90' (DRC-2, concentration 10): 45%
- % inhibition ApPOL 90' (DRC-2, concentration 20): 60%
- % inhibition ApPOL 90' (DRC-2, concentration 40): 67%
- % inhibition ApPOL 90' (DRC-2, concentration 80): 68%
- % inhibition apPOL 180' (DRC-2, concentration 2.5): 11%
- % inhibition apPOL 180' (DRC-2, concentration 5): 32%
- % inhibition apPOL 180' (DRC-2, concentration 10): 53%
- % inhibition apPOL 180' (DRC-2, concentration 20): 67%
- % inhibition apPOL 180' (DRC-2, concentration 40): 71%
- % inhibition apPOL 180' (DRC-2, concentration 80): 72%
